Consider 51 molecules from PubChem BioAssay AID1996.

SMILES strings stand for the structures. ≈ marks a conversion by molar mass, not a printed value.

For the data set the following is noted: buffer; pH 7.4; 200.0 µM.
`O=C1N=C(N2CCCCC2)S/C1=C\c1ccncc1` returned a kinetic solubility of more than 41 µg/mL.

Molecule `CCN1C/C(=N\S(=O)(=O)/N=C2\CN(CC)C(=O)N2CC)N(CC)C1=O` yielded a solubility (kinetic) of more than 55.9 µg/mL.

For the molecule `COc1ccc(C2(C(=O)Nc3ccc(C)cc3)CCOCC2)cc1`, the kinetic solubility was more than 48.8 µg/mL.

Turning to `COc1cc2c(cc1OC)CN(Cc1ccc(C)cc1)CC2`, the kinetic solubility is 35.1 µg/mL (≈ 118 µM).

Take `Cc1cc(C)c(C#N)c(SCCN2CCOCC2)n1`: the solubility (kinetic) is more than 41.6 µg/mL.

In turn, `NS(=O)(=O)c1ccc(NC(=O)c2cc(Cl)sc2Cl)cc1` came in with a kinetic solubility of 15.4 µg/mL (≈ 43.8 µM).

On to `O=C(Nc1ccccc1-c1ccccc1)c1ccccc1`, for which the solubility (kinetic) was more than 41 µg/mL.

The molecule `CC(C)CCNC(=O)COc1cccc2c1OC(C)(C)C2` returned a kinetic solubility of 43.4 µg/mL (≈ 149 µM).

`O=S(=O)(Nc1ccc(Br)cc1)c1cccc2nonc12` showed a kinetic solubility of more than 53.1 µg/mL.

`O=C(CCSCc1ccccc1F)NCCc1ccccc1` showed a kinetic solubility of 17.8 µg/mL (≈ 56.1 µM).

The molecule `COC(=O)C1=C(Nc2ccccc2NC(=O)c2ccccc2C(=O)O)CSC1` showed a solubility (kinetic) of more than 59.8 µg/mL.

For the molecule `Cc1ccc(C)c(CNC(=O)Nc2ccccc2)c1`, the kinetic solubility was determined as 0.8 µg/mL (≈ 3.15 µM).

Regarding `Cc1cccc(NC(=O)C2CC(=O)N(Cc3ccccc3)C2)n1` (stereo unspecified), the solubility (kinetic) is more than 46.4 µg/mL.

Turning to `CCOC(=O)C1=C(C)NC2=C(C(=O)c3ccccc32)C1c1ccc([N+](=O)[O-])o1` (stereo unspecified), the solubility (kinetic) amounted to 7.4 µg/mL (≈ 19.5 µM).

Molecule `O=C1CCCC2=C1C(c1ccsc1)CC(=O)N2c1ccccc1F` (stereo unspecified) showed a solubility (kinetic) of more than 51.2 µg/mL.

`CC(=O)C1=NOC2C(=O)N(c3ccc(Cl)cc3)C(=O)C12` (stereo unspecified) showed a solubility (kinetic) of more than 43.9 µg/mL.

In turn, `CCOC(=O)c1ccc(N=Cc2c(O)c3ccccc3oc2=O)cc1` showed a solubility (kinetic) of 4.7 µg/mL (≈ 13.9 µM).

As for `CCOc1ccc(N2C(=O)/C(=C/c3ccc(C)o3)C(=O)NC2=S)cc1`, the kinetic solubility is more than 53.5 µg/mL.

In turn, `Cc1cccc(OCC(=O)NCc2ccc(F)cc2)c1` came in with a kinetic solubility of 23.4 µg/mL (≈ 85.6 µM).

For the molecule `COc1nc(NC2CCCCC2)nc(NC(C)(C)C)n1`, the kinetic solubility was 20.7 µg/mL (≈ 74.1 µM).

With `Cc1nc(-c2cc(-c3ccc(Cl)cc3)no2)cs1`, the kinetic solubility was less than 0.3 µg/mL.

`COc1ccccc1OCCCCN1CCC(C)CC1` returned a solubility (kinetic) of 30.7 µg/mL (≈ 111 µM).

`CC(=O)c1ccc(N2CCN(C(=O)c3cc4c(s3)CCCC4)CC2)cc1` showed a solubility (kinetic) of 10.7 µg/mL (≈ 29 µM).

Regarding `CCOc1ccc(NC(=O)CNc2cccc(S(=O)(=O)N3CCCCCC3)c2)cc1OCC`, the solubility (kinetic) came out at 18.8 µg/mL (≈ 39.5 µM).

In the case of `Cc1ccc2nc(SCC(=O)c3ccc(O)cc3O)[nH]c2c1`, the solubility (kinetic) is 6.4 µg/mL (≈ 20.4 µM).

As for `O=c1[nH]c(/C=C\c2ccc(O)c(Cl)c2)nc(O)c1[N+](=O)[O-]`, the kinetic solubility came out at 44 µg/mL (≈ 142 µM).

As for `CC1CCN(C(=O)COC(=O)c2cn(C)c3ccccc23)CC1`, the solubility (kinetic) was more than 47.2 µg/mL.

Take `Cc1ccc(-c2c[nH]c(=S)n2-c2ccccc2)cc1`: the kinetic solubility is 6 µg/mL (≈ 22.5 µM).

For the molecule `O=C(O)/C=C/c1cccc(NC(=O)c2ccccc2)c1`, the kinetic solubility amounted to 34 µg/mL (≈ 127 µM).

As to `CSc1nc2ccc(NC(=O)c3ccc(=O)[nH]c3)cc2s1`, the solubility (kinetic) was found to be 16.1 µg/mL (≈ 50.7 µM).

`O=C(Nc1scc(-c2ccccc2)c1C(=O)O)c1ccccc1F`: the kinetic solubility is more than 51.2 µg/mL.

`O=C(/C=C/c1ccccc1)NCc1ccc2c(c1)OCO2` registered a solubility (kinetic) of 2.5 µg/mL (≈ 8.89 µM).

Molecule `Cc1ccccc1C(=O)NCC(=O)NC1CC1` showed a kinetic solubility of more than 34.8 µg/mL.

Turning to `NC(=O)Nc1ccc(C(=O)OCC(=O)c2c[nH]c3ccccc23)cc1`, the kinetic solubility was 4.2 µg/mL (≈ 12.5 µM).

In turn, `CN1CCN(CCOc2ccc(-c3ccccc3)cc2)CC1.Cl` yielded a kinetic solubility of more than 49.9 µg/mL.

`Cc1ccc(C(=O)N/C(=C\c2ccc(C)o2)C(=O)O)cc1`: the solubility (kinetic) is more than 42.8 µg/mL.

Molecule `CC1(C)c2ccccc2N2CC(=O)N[C@@]21/C=C/C=C/c1ccccc1` came in with a kinetic solubility of 0.9 µg/mL (≈ 2.72 µM).

In turn, `Cc1cc(=O)n2c3ccccc3n(CC(O)CN3CCOCC3)c2c1C#N` (stereo unspecified) showed a kinetic solubility of more than 55 µg/mL.

Take `Cc1ccc(C)c(C(=O)COC(=O)CN2C(=O)C3C4CCC(C4)C3C2=O)c1` (stereo unspecified): the kinetic solubility was more than 55.4 µg/mL.

`Cc1cccc(C(=O)O/N=C(\N)c2ccccn2)c1` had a solubility (kinetic) of more than 38.3 µg/mL.

As for `CC(C)Oc1ccc(C(=O)CCN2CCOCC2)cc1`, the solubility (kinetic) was found to be 32.8 µg/mL (≈ 118 µM).

On to `COc1ccc(NC(=S)Nc2ccc(OC(F)F)cc2)cn1`, for which the kinetic solubility was found to be 35 µg/mL (≈ 108 µM).

`O=C(c1ccc(F)cc1)N(c1ccccn1)C1CCCCC1`: the solubility (kinetic) came to 42.6 µg/mL (≈ 143 µM).

`O=C(CSc1ccc2ccccc2n1)NCCCN1CCCC1=O` displayed a solubility (kinetic) of more than 51.5 µg/mL.

On to `COc1ccsc1C(=O)NCCN1CCOCC1`, for which the solubility (kinetic) worked out at 39.7 µg/mL (≈ 147 µM).

In turn, `COc1ccccc1-c1noc(CCCC(=O)NC2CCCCC2)n1` yielded a kinetic solubility of 48.5 µg/mL (≈ 141 µM).

Take `O=C(Cc1ncc(C(F)(F)F)cc1Cl)NC1CC1`: the kinetic solubility is more than 41.8 µg/mL.

`COc1ccc(CCC(C)NCc2ccccc2OC)cc1` (stereo unspecified): the kinetic solubility came to 32 µg/mL (≈ 107 µM).

In the case of `CCn1cnc2scc(-c3ccc(OC)cc3)c2c1=O`, the solubility (kinetic) was more than 43 µg/mL.

On to `O=C(O)C(=O)Nc1nc(-c2ccc3c(c2)OCCO3)cs1`, for which the kinetic solubility is more than 45.9 µg/mL.

`O=c1[nH]c(=O)n(-c2ccc(F)cc2)c(O)c1/C=C1\C=Nc2ccccc21` came in with a kinetic solubility of 1.9 µg/mL (≈ 5.44 µM).

Broadly, the kinetic solubility is the concentration staying in solution when a stock, usually in DMSO, is diluted into the medium.
